# Test results published in paper PMC12755129 (Blood, 2025).
# Target: LRRC8A (SWELL1), LRRC8 volume-regulated anion channel complex (Homo sapiens, UniProt Q8IWT6)
# Experiment: patch clamp of hypotonic swell-activated VRAC/ATP currents in MEG-01 cells
# Type: cell-based
# Sequence of LRRC8A (SWELL1), LRRC8 volume-regulated anion channel complex (Q8IWT6 whole entry): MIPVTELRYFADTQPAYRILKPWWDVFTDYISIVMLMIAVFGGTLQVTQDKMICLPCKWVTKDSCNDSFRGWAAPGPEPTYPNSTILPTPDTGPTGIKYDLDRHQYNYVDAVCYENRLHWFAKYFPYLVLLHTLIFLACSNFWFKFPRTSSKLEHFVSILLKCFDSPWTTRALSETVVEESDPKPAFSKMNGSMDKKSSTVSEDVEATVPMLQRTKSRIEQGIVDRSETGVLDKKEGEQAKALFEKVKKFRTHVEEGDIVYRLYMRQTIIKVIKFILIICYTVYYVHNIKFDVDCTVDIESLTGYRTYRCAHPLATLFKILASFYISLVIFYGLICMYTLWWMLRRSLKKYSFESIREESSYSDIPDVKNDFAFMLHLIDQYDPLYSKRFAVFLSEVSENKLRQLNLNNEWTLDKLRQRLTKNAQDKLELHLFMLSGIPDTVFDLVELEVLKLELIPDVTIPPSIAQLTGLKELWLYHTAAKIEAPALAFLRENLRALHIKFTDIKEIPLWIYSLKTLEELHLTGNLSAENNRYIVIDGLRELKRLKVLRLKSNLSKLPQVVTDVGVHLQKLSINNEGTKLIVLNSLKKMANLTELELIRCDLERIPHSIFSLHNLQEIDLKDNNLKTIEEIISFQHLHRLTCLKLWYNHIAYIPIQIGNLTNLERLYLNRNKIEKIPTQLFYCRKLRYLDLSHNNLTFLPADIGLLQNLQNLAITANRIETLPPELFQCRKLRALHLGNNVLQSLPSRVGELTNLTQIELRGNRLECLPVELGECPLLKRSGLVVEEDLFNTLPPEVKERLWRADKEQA
# Sequence of LRRC8A (SWELL1), LRRC8 volume-regulated anion channel complex (Q6P9F7 whole entry partner): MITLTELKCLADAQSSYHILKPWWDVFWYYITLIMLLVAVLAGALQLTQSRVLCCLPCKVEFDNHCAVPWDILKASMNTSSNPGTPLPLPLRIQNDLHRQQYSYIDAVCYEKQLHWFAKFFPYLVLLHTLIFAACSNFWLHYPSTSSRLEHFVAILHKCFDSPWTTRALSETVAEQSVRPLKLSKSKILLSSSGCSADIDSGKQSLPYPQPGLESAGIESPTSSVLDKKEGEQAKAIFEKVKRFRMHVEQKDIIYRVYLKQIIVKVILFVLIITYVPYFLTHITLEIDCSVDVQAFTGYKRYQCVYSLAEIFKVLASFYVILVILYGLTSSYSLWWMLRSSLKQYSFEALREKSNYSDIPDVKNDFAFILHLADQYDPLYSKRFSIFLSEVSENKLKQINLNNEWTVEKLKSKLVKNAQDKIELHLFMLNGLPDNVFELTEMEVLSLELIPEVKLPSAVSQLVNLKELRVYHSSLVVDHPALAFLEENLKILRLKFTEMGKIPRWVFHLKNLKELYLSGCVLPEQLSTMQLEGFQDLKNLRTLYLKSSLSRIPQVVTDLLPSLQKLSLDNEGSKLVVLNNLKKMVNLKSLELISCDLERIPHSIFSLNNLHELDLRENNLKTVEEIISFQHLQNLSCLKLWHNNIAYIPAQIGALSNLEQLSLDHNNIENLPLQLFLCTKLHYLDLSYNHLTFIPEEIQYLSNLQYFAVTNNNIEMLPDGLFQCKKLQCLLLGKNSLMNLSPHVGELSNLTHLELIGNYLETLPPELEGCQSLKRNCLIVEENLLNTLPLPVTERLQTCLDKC
# Sequence of LRRC8A (SWELL1), LRRC8 volume-regulated anion channel complex (Q8TDW0 whole entry partner): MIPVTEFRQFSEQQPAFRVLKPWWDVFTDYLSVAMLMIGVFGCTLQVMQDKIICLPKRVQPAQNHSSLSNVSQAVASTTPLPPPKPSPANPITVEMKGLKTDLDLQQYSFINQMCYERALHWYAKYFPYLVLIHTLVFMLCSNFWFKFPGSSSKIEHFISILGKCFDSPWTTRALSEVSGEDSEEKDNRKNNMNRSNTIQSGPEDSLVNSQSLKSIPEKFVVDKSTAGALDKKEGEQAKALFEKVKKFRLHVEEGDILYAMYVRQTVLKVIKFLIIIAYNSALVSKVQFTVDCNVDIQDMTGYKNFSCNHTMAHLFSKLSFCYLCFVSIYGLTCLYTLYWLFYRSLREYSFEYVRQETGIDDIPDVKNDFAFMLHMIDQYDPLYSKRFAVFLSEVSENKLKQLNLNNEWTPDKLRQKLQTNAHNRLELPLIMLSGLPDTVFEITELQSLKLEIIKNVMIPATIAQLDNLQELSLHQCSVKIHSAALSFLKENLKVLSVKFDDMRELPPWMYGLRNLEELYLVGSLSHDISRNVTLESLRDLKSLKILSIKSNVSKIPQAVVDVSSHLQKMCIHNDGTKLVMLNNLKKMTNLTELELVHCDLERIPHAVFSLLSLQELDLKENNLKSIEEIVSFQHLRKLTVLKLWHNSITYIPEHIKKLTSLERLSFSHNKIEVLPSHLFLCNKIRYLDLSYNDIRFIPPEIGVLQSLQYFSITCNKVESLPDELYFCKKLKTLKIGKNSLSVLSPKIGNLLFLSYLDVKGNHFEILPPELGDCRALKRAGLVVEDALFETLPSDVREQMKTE
# Sequence of LRRC8A (SWELL1), LRRC8 volume-regulated anion channel complex (Q7L1W4 whole entry partner): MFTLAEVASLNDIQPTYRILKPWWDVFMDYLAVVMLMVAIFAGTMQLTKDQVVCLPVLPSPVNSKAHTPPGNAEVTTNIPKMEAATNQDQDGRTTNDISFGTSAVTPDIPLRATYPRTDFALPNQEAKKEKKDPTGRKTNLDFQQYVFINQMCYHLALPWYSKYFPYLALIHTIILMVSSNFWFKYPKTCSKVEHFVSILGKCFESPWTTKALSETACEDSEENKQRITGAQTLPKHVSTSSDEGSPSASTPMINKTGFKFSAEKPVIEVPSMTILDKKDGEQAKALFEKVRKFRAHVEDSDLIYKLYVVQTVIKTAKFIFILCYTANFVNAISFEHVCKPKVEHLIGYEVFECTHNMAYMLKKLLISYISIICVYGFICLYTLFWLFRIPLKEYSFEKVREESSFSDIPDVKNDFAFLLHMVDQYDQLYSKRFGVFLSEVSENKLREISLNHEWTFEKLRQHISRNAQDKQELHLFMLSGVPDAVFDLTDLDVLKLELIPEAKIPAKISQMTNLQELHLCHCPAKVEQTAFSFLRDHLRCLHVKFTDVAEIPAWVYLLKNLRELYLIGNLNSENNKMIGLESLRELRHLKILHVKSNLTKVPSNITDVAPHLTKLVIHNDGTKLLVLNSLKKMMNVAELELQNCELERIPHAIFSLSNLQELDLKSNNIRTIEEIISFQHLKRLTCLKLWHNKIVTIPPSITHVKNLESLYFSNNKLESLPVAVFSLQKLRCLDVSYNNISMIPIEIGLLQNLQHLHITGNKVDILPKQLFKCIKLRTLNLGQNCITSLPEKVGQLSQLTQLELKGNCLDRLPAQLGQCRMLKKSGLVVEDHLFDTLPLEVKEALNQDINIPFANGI
row,Molecule,IC50 [nM]
1,SN-406,1000
2,"CCCCC1(C2CCCC2)Cc2cc(OCCCC(=O)O)c(Cl)c(Cl)c2C1=O (centres unmarked) [SN-401, 4-(2-butyl-6,7-dichloro-2-cyclopentylindan-1-on-5-yl)oxybutyric acid]",1500
